The test system of test [1] is Staphylococcus aureus. The experiment in a line: Antimicrobial activity against Staphylococcus aureus Tour by tube dilution method. It is filed as functional.
Test [2] relates to Streptococcus pyogenes. Description: Antimicrobial activity against Streptococcus haemolyticus C 203 by tube dilution method. Type of test: functional.
Test [3] relates to Streptococcus pneumoniae. The experiment in a line: Antimicrobial activity against Diplococcus pneumoniae UC41 by tube dilution method. Type of test: functional.
In test [4] the test system is Clostridium perfringens. Description: Antimicrobial activity against Clostridium perfringens ISS 30543 by tube dilution method. Type of test: functional.
For test [5], the system named is Proteus vulgaris. The experiment in a line: Antimicrobial activity against Proteus vulgaris X19 H ATCC 881 by tube dilution method. Type of test: functional.
For test [6], the system named is Escherichia coli. Description: Antimicrobial activity against Escherichia coli SKF 12140 by tube dilution method. Type of test: functional.
Test [7] relates to Shigella sonnei. The experiment in a line: Antimicrobial activity against Shigella sonnei ATCC 9290 by tube dilution method. It is filed as functional.
In test [8] the test system is Salmonella typhimurium. Description: Antimicrobial activity against Salmonella typhimurium Kh by tube dilution method. Type of test: functional, Salmonella enterica subsp. enterica serovar Typhimurium. The following applies: Salmonella enterica.
The test system of test [9] is Klebsiella pneumoniae. The experiment in a line: Antimicrobial activity against Klebsiella pneumoniae I.S.M. by tube dilution method. Type of test: functional.
The test system of test [10] is Pseudomonas aeruginosa. The experiment in a line: Antimicrobial activity against Pseudomonas aeruginosa ATCC 10145 by tube dilution method. It is filed as functional.
Test [11] concerns Candida albicans. Description: Antimicrobial activity against Candida albicans SKF 2270 by tube dilution method. Type of test: functional.
Test [12] deals with Trichophyton mentagrophytes. Description: Antimicrobial activity against Trichophyton mentagrophytes SKF 17410 by tube dilution method. It is filed as functional.
Test [13] has as its system Mycobacterium tuberculosis. Description: Antimicrobial activity against Mycobacterium tuberculosis ATCC 9360 by tube dilution method. It is filed as functional.
Test [14] relates to Mycoplasmoides gallisepticum. The experiment in a line: Antimicrobial activity against Mycoplasma gallisepticum H21 C.Z.B. by tube dilution method. It is filed as functional.
For test [15], the system named is Trichomonas vaginalis. The experiment in a line: Trichomonastatic activity against Trichomonas vaginalis by tube dilution method. Type of test: functional.
For test [16], the system named is Trichomonas vaginalis. The experiment in a line: Trichomonacidal activity against Trichomonas vaginalis by tube dilution method. It is filed as functional.

≈ marks a conversion by molar mass, not a printed value.

In the case of `CC(=O)c1cnc([N+](=O)[O-])n1C`, the MIC (in general, the smallest concentration in the dilution series that meets the test's criterion for growth inhibition) worked out at 50 µg/mL (≈ 296 µM) in test [1]; 100 µg/mL (≈ 591 µM) in test [2]; 20 µg/mL (≈ 118 µM) in [3]; 20 µg/mL (≈ 118 µM) in [4]; 100 µg/mL (≈ 591 µM) in test [5]; 10 µg/mL (≈ 59.1 µM) in [6]. Also, the minimum inhibitory concentration (MIC) was 50 µg/mL (≈ 296 µM) in test [7]; 100 µg/mL (≈ 591 µM) in test [8]; 100 µg/mL (≈ 591 µM) in [9]; above 100 µg/mL in test [10]; above 100 µg/mL in [11]; 50 µg/mL (≈ 296 µM) in [12]. Further, the MIC in [13] is 50 µg/mL (≈ 296 µM); in test [14], 100 µg/mL (≈ 591 µM); in [15] it was 50 µg/mL (≈ 296 µM); in test [16] it was above 100 µg/mL.
Regarding `CCOC(=O)/C=C/c1cnc([N+](=O)[O-])n1C`, the MIC was above 100 µg/mL in test [1]; 100 µg/mL (≈ 444 µM) in test [2]; 100 µg/mL (≈ 444 µM) in [3]; 50 µg/mL (≈ 222 µM) in test [4]; above 100 µg/mL in [5]; 50 µg/mL (≈ 222 µM) in test [6]. The MIC in test [7] was above 100 µg/mL; in test [8] it was above 100 µg/mL; in test [9], above 100 µg/mL; in test [10], above 100 µg/mL; in [11] it was above 100 µg/mL; in test [12], 100 µg/mL (≈ 444 µM). Further, the MIC in [13] amounted to 50 µg/mL (≈ 222 µM); in test [14], 100 µg/mL (≈ 444 µM); in test [15] it was 20 µg/mL (≈ 88.8 µM); in [16], 100 µg/mL (≈ 444 µM).
In the case of `Cn1c(C=O)cnc1[N+](=O)[O-]`, the MIC was determined as 50 µg/mL (≈ 322 µM) in test [1]; 50 µg/mL (≈ 322 µM) in [2]; 20 µg/mL (≈ 129 µM) in [3]; 10 µg/mL (≈ 64.5 µM) in test [4]; 50 µg/mL (≈ 322 µM) in test [5]; 10 µg/mL (≈ 64.5 µM) in test [6]. Further, the minimum inhibitory concentration (MIC) in test [7] stood at 20 µg/mL (≈ 129 µM); in test [8], 2 µg/mL (≈ 12.9 µM); in test [9], 10 µg/mL (≈ 64.5 µM); in test [10], 10 µg/mL (≈ 64.5 µM); in [11] it was 50 µg/mL (≈ 322 µM); in [12], 10 µg/mL (≈ 64.5 µM). The results for the MIC in [13], in [15] and in [16] were 10 µg/mL (≈ 64.5 µM), 100 µg/mL (≈ 645 µM) and above 100 µg/mL, respectively.
Regarding `Br.CC(/C=C/c1cnc([N+](=O)[O-])n1C)=N\NC1=NCCN1`, the MIC in test [1] is 50 µg/mL; in test [2] it was 20 µg/mL; in test [3], 20 µg/mL; in [4], 100 µg/mL; in test [5] it was above 100 µg/mL; in [6], 100 µg/mL. In addition, the MIC in test [7], in test [8], in test [9], in test [10], in [11] and in test [12] was above 100 µg/mL throughout. For the same molecule, the MIC in test [13] is above 100 µg/mL; in [14] it was 100 µg/mL; in test [15], 20 µg/mL; in test [16] it was 100 µg/mL.
`Cc1cc(-c2cnc([N+](=O)[O-])n2C)n(CCO)n1`: the MIC is 20 µg/mL (≈ 79.6 µM) in test [1]; 50 µg/mL (≈ 199 µM) in test [2]; 50 µg/mL (≈ 199 µM) in test [3]; 100 µg/mL (≈ 398 µM) in test [4]; above 100 µg/mL in test [5]; 50 µg/mL (≈ 199 µM) in [6]. Also, the MIC in test [7], in [8], in test [9], in test [10], in [11] and in test [12] was above 100 µg/mL throughout. Moreover, the MIC in test [13] is above 100 µg/mL; in [14] it was above 100 µg/mL; in test [15], 10 µg/mL (≈ 39.8 µM); in test [16], 50 µg/mL (≈ 199 µM).
Consider `COC(=O)c1cnc([N+](=O)[O-])n1C`, for which the MIC in test [1] is 50 µg/mL (≈ 270 µM); in test [2], above 100 µg/mL; in [3], 50 µg/mL (≈ 270 µM); in test [4] it was 5 µg/mL (≈ 27 µM); in test [5], above 100 µg/mL; in [6], 20 µg/mL (≈ 108 µM). For the same molecule, the minimal inhibitory concentration (MIC) in [7] is 100 µg/mL (≈ 540 µM); in [8] it was 100 µg/mL (≈ 540 µM); in [9] it was above 100 µg/mL; in test [10], above 100 µg/mL; in test [11] it was above 100 µg/mL; in test [12] it was above 100 µg/mL. Also, the MIC in [13] was above 100 µg/mL; in [14], above 100 µg/mL; in test [15], above 50 µg/mL.
Regarding `CC(/C=C/c1cnc([N+](=O)[O-])n1C)=N\N(C)C`, the minimal inhibitory concentration (MIC) in test [1] is 100 µg/mL (≈ 421 µM); in test [2] it was above 100 µg/mL; in test [3], above 100 µg/mL; in test [4] it was 10 µg/mL (≈ 42.1 µM); in test [5], above 100 µg/mL; in test [6], 50 µg/mL (≈ 211 µM). For the same molecule, the MIC in test [7], in test [8], in [9], in test [10], in [11] and in test [12] was above 100 µg/mL in each case. For the same molecule, the MIC was 20 µg/mL (≈ 84.3 µM) in test [13], above 100 µg/mL in test [14], 20 µg/mL (≈ 84.3 µM) in [15] and 50 µg/mL (≈ 211 µM) in test [16].
In the case of `CC(/C=C/c1cnc([N+](=O)[O-])n1C)=N\N1CCN(CCO)CC1`, the minimal inhibitory concentration (MIC) in test [1] is 50 µg/mL (≈ 155 µM); in test [2], 100 µg/mL (≈ 310 µM); in [3], 100 µg/mL (≈ 310 µM); in [4], 5 µg/mL (≈ 15.5 µM); in test [5] it was above 100 µg/mL; in test [6], 100 µg/mL (≈ 310 µM). The MIC in test [7], in test [8], in test [9], in test [10], in test [11] and in [12] was above 100 µg/mL in each case. Besides, the MIC is 50 µg/mL (≈ 155 µM) in test [13], above 100 µg/mL in test [14], 20 µg/mL (≈ 62 µM) in test [15] and 50 µg/mL (≈ 155 µM) in test [16].
For the molecule `CC(/C=C/c1cnc([N+](=O)[O-])n1C)=N\NC(N)=S`, the MIC was 10 µg/mL (≈ 37.3 µM) in test [1]; 20 µg/mL (≈ 74.5 µM) in test [2]; above 50 µg/mL in [3]; 5 µg/mL (≈ 18.6 µM) in [4]; above 50 µg/mL in [5]; above 50 µg/mL in test [6]. The MIC in test [7], in test [8], in test [9], in test [10], in test [11] and in [12] was above 50 µg/mL in each case. Also, the MIC was 10 µg/mL (≈ 37.3 µM) in test [13], above 50 µg/mL in test [14], 50 µg/mL (≈ 186 µM) in [15] and 100 µg/mL (≈ 373 µM) in [16].
On to `CCCCC(C(O)c1cnc([N+](=O)[O-])n1C)[N+](=O)[O-]` (stereo unspecified), for which the MIC in [1] is 50 µg/mL (≈ 184 µM); in [2], above 100 µg/mL; in [3] it was 100 µg/mL (≈ 367 µM); in [4], 20 µg/mL (≈ 73.5 µM); in [5], 100 µg/mL (≈ 367 µM); in test [6], 50 µg/mL (≈ 184 µM). Further, the MIC is 50 µg/mL (≈ 184 µM) in [7]; 50 µg/mL (≈ 184 µM) in [8]; 100 µg/mL (≈ 367 µM) in test [9]; 20 µg/mL (≈ 73.5 µM) in test [10]; 50 µg/mL (≈ 184 µM) in test [11]; 50 µg/mL (≈ 184 µM) in test [12]. In addition, the MIC was 50 µg/mL (≈ 184 µM) in test [13], 50 µg/mL (≈ 184 µM) in test [14] and above 100 µg/mL in [15].
For `O=C1CN(/N=C/c2ccc([N+](=O)[O-])o2)C(=O)N1` [NITROFURANTOIN], the MIC was 10 µg/mL (≈ 42 µM) in test [1]; 1 µg/mL (≈ 4.2 µM) in test [3]; 100 µg/mL (≈ 420 µM) in test [5]; 5 µg/mL (≈ 21 µM) in [6]; 10 µg/mL (≈ 42 µM) in test [7]; 20 µg/mL (≈ 84 µM) in test [8]. For the same molecule, the MIC in [9] was 50 µg/mL (≈ 210 µM); in test [10], above 100 µg/mL; in [13] it was 50 µg/mL (≈ 210 µM).

For the origin of these results see ChEMBL document CHEMBL3244225, “Synthesis and biological activity of some vinyl-substituted 2-nitroimidazoles” (J Med Chem, 1977).
